What was measured:
Format in all cases: cell-based
Gaeumannomyces graminis = Gaeumannomyces graminis / liquid culture (take-all of cereals); conditions: growth inhibition photometrically 4-5 days after application, compared to untreated control
Protocol: (§1) 6. Gaeumannomyces Graminis/Liquid Culture (Take-all of Cereals) Mycelial fragments of the fungus from cryogenic storage were directly mixed into nutrient broth (PDB potato dextrose broth). After placing a (DMSO) solution of test compound into a microtiter plate (96-well format), the nutrient broth containing the fungal spores is added. The test plates are incubated at 24° C. and the inhibition of growth is determined photometrically 4-5 days after application.

Pythium ultimum = Pythium ultimum / liquid culture (seedling damping off); conditions: Globisporangium ultimum, growth inhibition photometrically 2-3 days after application, compared to untreated control
Protocol: 15. Pythium ultimum/Liquid Culture (Seedling Damping Off) Mycelia fragments and oospores of a newly grown liquid culture of the fungus are directly mixed into nutrient broth (PDB potato dextrose broth). After placing a (DMSO) solution of test compound into a microtiter plate (96-well format), the nutrient broth containing the fungal mycelia/spore mixture is added. The test plates are incubated at 24° C. and the inhibition of growth is determined photometrically 2-3 days after application.

[1] = system: Monographella nivalis (Microdochium nivale); experiment: Monographella nivalis (Microdochium nivale) / liquid culture (foot rot cereals); conditions: growth inhibition photometrically 4-5 days after application, compared to untreated control
Protocol: as §1, with “8. Monographella nivalis (Microdochium nivale)/Liquid” for “6. Gaeumannomyces Graminis/Liquid”, “(Foot Rot” for “(Take-all of”, “Conidia” for “Mycelial fragments”, “are” for “were”

Question: Which results are given for COc1c(C(=O)OCn2cnc(Cl)c2Cl)ccc2c1B(O)OC2 [Compound 97, (4,5-dichloroimidazol-1-yl)methyl 1-hydroxy-7-methoxy-3H-2,1-benzoxaborole-6-carboxylate]?
Answer: inhibition of growth at 20 ppm (Gaeumannomyces graminis): ≥ 80%; inhibition of growth at 20 ppm (Pythium ultimum): ≥ 80%

Question: What does the source list for COc1c(C(=O)OCc2ncc(Cl)cc2F)ccc2c1B(O)OC2 [Compound 87, (5-chloro-3-fluoro-2-pyridyl)methyl 1-hydroxy-7-methoxy-3H-2,1-benzoxaborole-6-carboxylate]?
Answer: inhibition of growth at 20 ppm (Gaeumannomyces graminis): ≥ 80%; inhibition of growth at 20 ppm (Pythium ultimum): ≥ 80%

Question: Which results are given for CCCNC(=O)c1ccc2c(c1OC)B(O)OC2 [Compound 63, 1-hydroxy-7-methoxy-N-propyl-3H-2,1-benzoxaborole-6-carboxamide]?
Answer: inhibition of growth at 20 ppm (Pythium ultimum): ≥ 80%; inhibition of growth at 20 ppm [1]: ≥ 80%

Question: Which results are given for CCOC(=O)[C@H](C)OC(=O)c1ccc2c(c1OC)B(O)OC2 [Compound 125, [(1S)-2-ethoxy-1-methyl-2-oxo-ethyl] 1-hydroxy-7-methoxy-3H-2,1-benzoxaborole-6-carboxylate]?
Answer: inhibition of growth at 20 ppm (Gaeumannomyces graminis): ≥ 80%; inhibition of growth at 20 ppm (Pythium ultimum): ≥ 80%; inhibition of growth at 20 ppm [1]: ≥ 80%

Question: For COc1c(C(=O)Oc2ccc(C#N)cc2)ccc2c1B(O)OC2 [Compound 14, (4-cyanophenyl) 1-hydroxy-7-methoxy-3H-2,1-benzoxaborole-6-carboxylate], which inhibition of growth at 20 ppm (Gaeumannomyces graminis) is on record?
Answer: ≥ 80%

Question: And the inhibition of growth at 20 ppm (Pythium ultimum)?
Answer: ≥ 80%

Question: COc1c(C(=O)OCC2CCC=CO2)ccc2c1B(O)OC2 (centres unmarked) [Compound 77, 3,4-dihydro-2H-pyran-2-ylmethyl 1-hydroxy-7-methoxy-3H-2,1-benzoxaborole-6-carboxylate] was tested. Which inhibition of growth at 20 ppm (Gaeumannomyces graminis) did it give?
Answer: ≥ 80%

Question: What about the inhibition of growth at 20 ppm (Pythium ultimum) of the same compound?
Answer: ≥ 80%

Question: What about the inhibition of growth at 20 ppm [1] of the same compound?
Answer: ≥ 80%

Question: CCCC1OCC(C)(COC(=O)c2ccc3c(c2OC)B(O)OC3)CO1 (centres unmarked) [Compound 98, (5-methyl-2-propyl-1,3-dioxan-5-yl)methyl 1-hydroxy-7-methoxy-3H-2,1-benzoxaborole-6-carboxylate] was tested. Which inhibition of growth at 20 ppm (Gaeumannomyces graminis) did it give?
Answer: ≥ 80%

Question: What about the inhibition of growth at 20 ppm (Pythium ultimum) of the same compound?
Answer: ≥ 80%

Question: And the inhibition of growth at 20 ppm [1]?
Answer: ≥ 80%

Question: Which results are given for COc1c(C(=O)OCc2c(Cl)cc(O)cc2Cl)ccc2c1B(O)OC2 [Compound 92, (2,6-dichloro-4-hydroxy-phenyl)methyl 1-hydroxy-7-methoxy-3H-2,1-benzoxaborole-6-carboxylate]?
Answer: inhibition of growth at 20 ppm (Gaeumannomyces graminis): ≥ 80%; inhibition of growth at 20 ppm (Pythium ultimum): ≥ 80%; inhibition of growth at 20 ppm [1]: ≥ 80%

Question: Which results are given for COc1c(C(=O)NCc2c(C)cccc2Cl)ccc2c1B(O)OC2 [Compound 31, N-[(2-chloro-6-methyl-phenyl)methyl]-1-hydroxy-7-methoxy-3H-2,1-benzoxaborole-6-carboxamide]?
Answer: inhibition of growth at 20 ppm (Pythium ultimum): ≥ 80%; inhibition of growth at 20 ppm [1]: ≥ 80%

Question: For COc1c(C(=O)OC(C)c2cc(C(F)(F)F)n[nH]2)ccc2c1B(O)OC2 (centres unmarked) [Compound 91, 1-[3-(trifluoromethyl)-1H-pyrazol-5-yl]ethyl 1-hydroxy-7-methoxy-3H-2,1-benzoxaborole-6-carboxylate], which inhibition of growth at 20 ppm (Gaeumannomyces graminis) is on record?
Answer: ≥ 80%

Question: What about the inhibition of growth at 20 ppm (Pythium ultimum) of the same compound?
Answer: ≥ 80%

Question: With COc1c(C(=O)NC(C)c2ccc(F)cc2)ccc2c1B(O)OC2 (centres unmarked) [Compound 57, N-[1-(4-fluorophenyl)ethyl]-1-hydroxy-7-methoxy-3H-2,1-benzoxaborole-6-carboxamide] as the compound, how does the inhibition of growth at 20 ppm (Pythium ultimum) read?
Answer: ≥ 80%

Question: And the inhibition of growth at 20 ppm [1]?
Answer: ≥ 80%

Question: COc1c(C(=O)Nc2nc(C(C)C)ncc2C)ccc2c1B(O)OC2 [Compound 45, 1-hydroxy-N-(2-isopropyl-5-methyl-pyrimidin-4-yl)-7-methoxy-3H-2,1-benzoxaborole-6-carboxamide] was tested. Which inhibition of growth at 20 ppm (Pythium ultimum) did it give?
Answer: ≥ 80%

Question: And the inhibition of growth at 20 ppm [1]?
Answer: ≥ 80%

Question: CCOc1ccc(NC(=O)c2ccc3c(c2OC)B(O)OC3)cc1Cl [Compound 41, N-(3-chloro-4-ethoxy-phenyl)-1-hydroxy-7-methoxy-3H-2,1-benzoxaborole-6-carboxamide] was tested. Which inhibition of growth at 20 ppm [1] did it give?
Answer: ≥ 80%

Question: Which inhibition of growth at 20 ppm (Gaeumannomyces graminis) does the source give for COc1c(C(=O)OCCn2nc(C)cc2OC(C)=O)ccc2c1B(O)OC2 [Compound 102, 2-(5-acetoxy-3-methyl-pyrazol-1-yl)ethyl 1-hydroxy-7-methoxy-3H-2,1-benzoxaborole-6-carboxylate] here?
Answer: ≥ 80%

Question: And the inhibition of growth at 20 ppm (Pythium ultimum)?
Answer: ≥ 80%

Question: For COc1c(C(=O)Nc2ccc(Cl)cc2F)ccc2c1B(O)OC2 [Compound 54, N-(4-chloro-2-fluoro-phenyl)-1-hydroxy-7-methoxy-3H-2,1-benzoxaborole-6-carboxamide], which inhibition of growth at 20 ppm [1] is on record?
Answer: ≥ 80%

Question: How did the inhibition of growth at 20 ppm (Gaeumannomyces graminis) turn out when COc1c(C(=O)OCCON=C(C)C)ccc2c1B(O)OC2 [Compound 93, 2-(isopropylideneamino)oxyethyl 1-hydroxy-7-methoxy-3H-2,1-benzoxaborole-6-carboxylate] was run?
Answer: ≥ 80%

Question: And the inhibition of growth at 20 ppm (Pythium ultimum)?
Answer: ≥ 80%

Question: What does the source list for COc1c(C(=O)N(C)c2nnc(C(F)(F)F)s2)ccc2c1B(O)OC2 [Compound 49, 1-hydroxy-7-methoxy-N-methyl-N-[5-(trifluoromethyl)-1,3,4-thiadiazol-2-yl]-3H-2,1-benzoxaborole-6-carboxamide]?
Answer: inhibition of growth at 20 ppm (Pythium ultimum): ≥ 80%; inhibition of growth at 20 ppm [1]: ≥ 80%

Question: What does the source list for COC(=O)c1cccc(NC(=O)c2ccc3c(c2OC)B(O)OC3)c1 [Compound 52, methyl 3-[(1-hydroxy-7-methoxy-3H-2,1-benzoxaborole-6-carbonyl)amino]benzoate]?
Answer: inhibition of growth at 20 ppm (Pythium ultimum): ≥ 80%; inhibition of growth at 20 ppm [1]: ≥ 80%

Question: For CCOC(=O)CC(OC(=O)c1ccc2c(c1OC)B(O)OC2)C(F)(F)F (centres unmarked) [Compound 101, [3-ethoxy-3-oxo-1-(trifluoromethyl)propyl] 1-hydroxy-7-methoxy-3H-2,1-benzoxaborole-6-carboxylate], which inhibition of growth at 20 ppm (Gaeumannomyces graminis) is on record?
Answer: ≥ 80%

Question: And the inhibition of growth at 20 ppm (Pythium ultimum)?
Answer: ≥ 80%

Question: COc1c(C(=O)Nc2ccc(OC(F)(F)F)cc2)ccc2c1B(O)OC2 [Compound 55, 1-hydroxy-7-methoxy-N-[4-(trifluoromethoxy)phenyl]-3H-2,1-benzoxaborole-6-carboxamide] was tested. Which inhibition of growth at 20 ppm [1] did it give?
Answer: ≥ 80%

Question: Which inhibition of growth at 20 ppm (Pythium ultimum) does the source give for COc1c(C(=O)Nc2n[nH]c(C(F)(F)F)n2)ccc2c1B(O)OC2 [Compound 46, 1-hydroxy-7-methoxy-N-[5-(trifluoromethyl)-1H-1,2,4-triazol-3-yl]-3H-2,1-benzoxaborole-6-carboxamide] here?
Answer: ≥ 80%

Question: What about the inhibition of growth at 20 ppm [1] of the same compound?
Answer: ≥ 80%

Question: Which results are given for COc1c(C(=O)OCc2cccc(C)n2)ccc2c1B(O)OC2 [Compound 119, (6-methyl-2-pyridyl)methyl 1-hydroxy-7-methoxy-3H-2,1-benzoxaborole-6-carboxylate]?
Answer: inhibition of growth at 20 ppm (Pythium ultimum): ≥ 80%; inhibition of growth at 20 ppm [1]: ≥ 80%

Question: Which inhibition of growth at 20 ppm (Gaeumannomyces graminis) does the source give for COc1c(C(=O)OCc2cc(Cl)ccc2Cl)ccc2c1B(O)OC2 [Compound 120, (2,5-dichlorophenyl)methyl 1-hydroxy-7-methoxy-3H-2,1-benzoxaborole-6-carboxylate] here?
Answer: ≥ 80%

Question: What does the source list for COc1c(C(=O)Nc2ccc(C)cn2)ccc2c1B(O)OC2 [Compound 66, 1-hydroxy-7-methoxy-N-(5-methyl-2-pyridyl)-3H-2,1-benzoxaborole-6-carboxamide]?
Answer: inhibition of growth at 20 ppm (Pythium ultimum): ≥ 80%; inhibition of growth at 20 ppm [1]: ≥ 80%

Question: Which inhibition of growth at 20 ppm (Pythium ultimum) does the source give for COc1c(C(=O)NCc2ccc(Cl)nc2)ccc2c1B(O)OC2 [Compound 59, N-[(6-chloro-3-pyridyl)methyl]-1-hydroxy-7-methoxy-3H-2,1-benzoxaborole-6-carboxamide] here?
Answer: ≥ 80%

Question: COc1c(C(=O)N(C)c2cc(Cl)cnc2Cl)ccc2c1B(O)OC2 [Compound 39, N-(2,5-dichloro-3-pyridyl)-1-hydroxy-7-methoxy-N-methyl-3H-2,1-benzoxaborole-6-carboxamide] was tested. Which inhibition of growth at 20 ppm (Pythium ultimum) did it give?
Answer: ≥ 80%

— patent US20180244699A1, “1-HYDROXY-3H-2,1-BENZOXABOROLE DERIVATIVES AND THEIR USE AS MICROBIOCIDES” (Syngenta Participations AG, priority 2015, published 2018)
